Source: ChEMBL document CHEMBL1157539, “Thousands of chemical starting points for antimalarial lead identification” (Nature, 2010)

These molecules were tested on Plasmodium falciparum (assay: GSK_TCMDC: Inhibition of Plasmodium falciparum 3D7 in whole erythrocytes, using parasite LDH activity as an index of growth.). Settings: Plasmodium falciparum, 3D7.
Type: functional, organism-based
For `COc1cccc2c(N/N=C/c3ccccc3[N+](=O)[O-])ccnc12`, the XC50 was 0.589 µM.
Work on `O=C(Cn1c(CCc2cccc(F)c2F)nc(=O)c2ccccc21)N(Cc1ccc(-c2ccc(C(F)(F)F)cc2)cc1)C1CCN(C2CCSCC2)CC1` yielded an XC50 of 0.856 µM.
In the case of `N=C(Nc1nc(-c2ccccn2)cc2ccccc12)c1cccc(Cl)c1`, the XC50 was 0.309 µM.
`Cc1cc2c3c(N)nc(N)nc3ccc2n1C` gave an XC50 of 0.0901 µM.
`Cc1ccc(C2=NNC3(S2)C(=O)N(C)c2ccccc23)cc1` (stereo not given) showed an XC50 of 1.02 µM.
For `C[C@H](Cc1ccc(C[C@@H](C)NC[C@H](O)c2cccc(Cl)c2)cc1)NC[C@H](O)COc1ccccc1`, the XC50 was 1.17 µM.
Work on `CC(NCCc1cccc(Cl)c1)C(O)c1ccc(OCCCCCCOc2ccc(C(O)C(C)NCCc3cccc(Cl)c3)cc2)cc1` (stereo not given) yielded an XC50 of 0.399 µM.
`Cc1cc2ncc(C(N)=O)c(Nc3ccc(N4CCOCC4)cc3)c2cc1S(C)(=O)=O` showed an XC50 of 0.675 µM.
With `Cc1c(C)c2c(c(C)c1O)CCC(C)(CCC(=O)O)O2` (stereo not given) the XC50 was 0.691 µM.
`Nc1nc(N)c2c(ccc3c2cnn3S(=O)(=O)N2CCCC2)n1` was tested, and the XC50 was 0.0186 µM.
`COc1cccc(NC(=O)c2nc(N3CCN(c4ccncc4)CC3)ccc2Cl)c1` gave an XC50 of 0.924 µM.
For `COc1ccc2nccc([C@@H](O)CN3CCC(NCCOc4cc(C(F)(F)F)ccc4F)CC3)c2c1`, the XC50 was 0.108 µM.
Molecule `COc1ccc2ncc(F)c(CCN3CCC(NCc4cc(Br)c5c(c4)OCCO5)CC3)c2n1` has an XC50 of 0.19 µM.
`COc1cc(-n2cnc3cc(-c4ccc([N+](=O)[O-])cc4)sc3c2=O)ccc1OCCN1CCCC1` gave an XC50 of 0.775 µM.
Molecule `CC1(C)NC(N)=NC(=N)N1OCCCc1ccc(Cl)cc1Cl` has an XC50 of 0.0032 µM.
For `CC(C)NCc1ccc(-c2cccc(-c3nc4ccccc4[nH]3)c2)cc1`, the XC50 was 0.231 µM.
In the case of `C(=Cc1ccccc1)C=NN=c1cc[nH]c2ccccc12`, the XC50 was 0.725 µM.
`CC(C)C(C(=O)Nc1ccc2c(c1)OCO2)c1ccc(Cl)cc1` (stereo not given) gave an XC50 of 0.717 µM.
In the case of `O=C(c1ccc(-c2ccc(-c3nc4cc(F)ccc4[nH]3)cc2)cc1)N1CCCCC1CN1CCC(O)C1` (stereo not given), the XC50 was 0.368 µM.
In the case of `Cc1cc(N[C@@H](Cc2ccccc2)C(=O)NCCc2ccccc2)nc(NCCOc2ccccc2)n1`, the XC50 was 1 µM.
For `O=C(Nc1ccc(-c2ccccc2)cc1)Nc1cccc(Cn2cnc(N3CCCNCC3)cc2=O)c1`, the XC50 was 1.08 µM.
`COc1ccc(NC(=O)N2CCCN(CCCCCNC(=O)/C=C/c3ccc(Cl)cc3)CC2)cc1Cl` showed an XC50 of 0.814 µM.
In the case of `O=C(NCC1CCC(C(=O)NCCN2CCCCC2)CC1)c1ccc(O)c(-c2ccc(Cl)c(Cl)c2)c1` (stereo not given), the XC50 was 1.17 µM.
With `O=C(/C=C/c1ccc(C(F)(F)F)cc1)NCCCCCN1CCCN(C(=O)Nc2ccc(Cl)c(Cl)c2)CC1` the XC50 was 0.421 µM.
`Cc1cccc2nc(-c3ccc(-c4cccc(CNCc5cccc(N)c5)c4)cc3)[nH]c12` gave an XC50 of 0.39 µM.
With `O=C(CC(=O)C(F)(F)F)c1ccccc1[N+](=O)[O-]` the XC50 was 0.0032 µM.
`Cc1cccc(C)c1C1CCN(CCCCNC(=O)c2cc3ccccc3[nH]2)CC1` was tested, and the XC50 was 0.892 µM.
`O=C1CCCN1CCCNCc1ccc(-c2ccc(-c3nc4cc(C(F)(F)F)ccc4[nH]3)cc2)cc1` gave an XC50 of 0.583 µM.
`Cc1nc(N)nc(N)c1OCc1cccc2ccccc12` was tested, and the XC50 was 0.0727 µM.
With `Cc1[nH]c(C)c(-c2ccc(-c3ccc4c(c3)OCO4)nc2)c(=O)c1Br` the XC50 was 0.187 µM.
Work on `COC(=O)/C=C/c1ccc(CC(C)NCC(O)c2cccc(C(F)(F)F)c2)cc1` (stereo not given) yielded an XC50 of 0.731 µM.
In the case of `COc1ccc(C=CC(=O)NC(=O)c2ccccc2OC(=O)c2ccccc2)cc1OC`, the XC50 was 0.91 µM.
In the case of `CC(C)C[C@H](NC(=O)c1cc2ccccc2s1)C(=O)N[C@H]1CCN(Cc2ccc(OC[C@@H]3CCCN3C)c(Cl)c2)C1`, the XC50 was 0.853 µM.
In the case of `CCN1CCCC1CNC(=O)c1cc2c(-c3ccc(Cl)cc3)nn(C)c2s1` (stereo not given), the XC50 was 0.788 µM.
For `CN1CCN(c2cc(NC(=O)c3ccc(-c4ccc(Cl)cc4)cc3)ccc2Cl)CC1`, the XC50 was 0.613 µM.
`O=C(Nc1ccc(C(F)(F)F)cc1)c1cccc(S(=O)(=O)NC2CCN(CC3CCCCC3)CC2)c1` was tested, and the XC50 was 0.848 µM.
`O=C(/C=C/c1ccc(Cl)c(Cl)c1)NC1CCC(N2CCC(c3c[nH]c4ccccc34)CC2)CC1` (stereo not given) gave an XC50 of 0.876 µM.
In the case of `COc1ccc2c(c1CNCCCCCCNCc1c(OC)ccc3c1CCCC3)CCCC2`, the XC50 was 0.907 µM.
Work on `N=c1n(CCN2CCCC2)c2ccccc2n1CC(O)c1ccc(Cl)c(Cl)c1` (stereo not given) yielded an XC50 of 0.277 µM.
Molecule `Cc1nc(Nc2ccc(F)cc2)nc(N2CCc3ccccc3C2C)c1CO` (stereo not given) has an XC50 of 0.741 µM.
`COc1ccc2ncc(F)c(CCN3CC[C@@H](CNCc4nc5c(cc4C)SCC(=O)N5)C3)c2n1` showed an XC50 of 1.15 µM.
Work on `CNC(=O)c1cnc(Nc2ccc(N3CCN(C)CC3)cc2)nc1Nc1ccccc1OC` yielded an XC50 of 0.928 µM.
Molecule `N#Cc1cc(C(=O)c2cc(Br)ccc2O)cn(C2CCCCC2)c1=O` has an XC50 of 0.91 µM.
With `N#CN1CC[C@@H](OC(=O)N[C@@H]2C[C@H]2c2ccccc2)C1` the XC50 was 1.34 µM.
With `CN1CCc2ccc(NC(=O)Nc3cccc([N+](=O)[O-])c3)cc2C1` the XC50 was 1.1 µM.
`c1cc(-c2ccc(CN3CCN(c4ccncc4)CC3)cc2)cc(-c2nc3ccccc3[nH]2)c1` showed an XC50 of 0.14 µM.
Work on `O=C(Nc1ccc(-c2csc(-c3nc4ccccc4[nH]3)c2)cc1)Nc1ccc(F)c(F)c1F` yielded an XC50 of 0.33 µM.
`COc1ccc(Cl)cc1N1CCN(CCCNC(=O)c2ccc(-c3nc4cc(Cl)c(C)cc4[nH]3)c(F)c2)CC1` was tested, and the XC50 was 0.185 µM.
Molecule `Cc1cc(N(C)C2CCN(C)C2)nc(Nc2ccc(Cl)cc2)n1` (stereo not given) has an XC50 of 0.336 µM.
`CC[C@H](C)CNC(=O)c1cccc(-c2cccc(CN3CCC(N4CCCC4)CC3)c2)n1` gave an XC50 of 0.706 µM.
Work on `CCNc1cc(C(=O)N[C@@H](Cc2ccccc2)[C@H](O)CNC(C)(C)CC(C)(C)C)c(F)c(N2CCCCS2(=O)=O)c1` yielded an XC50 of 1.01 µM.
With `COc1cc2nc(N3CCC(CNC(=O)c4ccc(-c5ccc(C(=O)N(C)C)cc5OCCN(C)C)cc4)CC3)nc(N)c2cc1OC` the XC50 was 0.842 µM.
Molecule `Nc1ccc(-c2nc3cc(C4=N[C@H]5CCCC[C@H]5N4)ccc3o2)cc1[N+](=O)[O-]` has an XC50 of 1.12 µM.
In the case of `Cc1[nH]c(C)c(-c2ccc(-c3ccc(OCC(F)(F)F)cc3)nc2)c(=O)c1Cl`, the XC50 was 0.389 µM.
`CN1CCN(c2cc3c(cc2Cl)CCN3C(=O)Cc2ccc(Cl)c(NC(=O)Nc3cccc(C#N)c3)c2)CC1` was tested, and the XC50 was 0.637 µM.
In the case of `Cc1nc(-c2ccc(-c3ccc(C(=O)Nc4ccc(C(C)C)c(OCCN(C)C)c4)cc3)c(C)c2)no1`, the XC50 was 0.87 µM.
For `O=C(NC1CCN(c2ccnc3cc(Cl)ccc23)C1)c1ccc(F)cc1F` (stereo not given), the XC50 was 0.372 µM.
In the case of `CCNc1cc(C(=O)N[C@@H](Cc2ccccc2)[C@H](O)CNC23CC4CC(CC(C4)C2)C3)cc(N2CCCCS2(=O)=O)c1`, the XC50 was 0.219 µM.
With `COc1ccc(OC)c(C=NNc2nc3ccccc3[nH]2)c1` the XC50 was 0.729 µM.
With `C=Cc1sc(CNCCCNc2cc(=O)c3ccccc3[nH]2)c(C)c1Br` the XC50 was 1.05 µM.
Molecule `NCCNC(=O)c1ccc(-c2cnc3[nH]cc(-c4ccc(C(N)=O)cc4)c3c2)cc1` has an XC50 of 0.171 µM.
In the case of `O=C(NCCN1CCOCC1)c1ccc(N2CCC(Oc3ccc4ccccc4c3)CC2)nc1`, the XC50 was 0.763 µM.
With `COc1ccc(Nc2cc(C)nc(Nc3ccc(NC(C)=O)cc3)n2)cc1` the XC50 was 0.865 µM.
`N=C(/N=C(/NCCCCCCN/C(=N\C(=N)Nc1ccc(Cl)cc1)N1CCOCC1)N1CCOCC1)Nc1ccc(Cl)cc1` was tested, and the XC50 was 0.713 µM.
`Oc1ccc(-c2cc(-c3ccc(O)cc3)nc(-c3ccccc3)n2)cc1` gave an XC50 of 0.783 µM.
Work on `Cc1ccc(Nc2nc3cc(N(C)c4ccnc(Nc5cccc(CCS(C)(=O)=O)c5)n4)ccc3n2C)cc1` yielded an XC50 of 0.339 µM.
Work on `CCOC(=O)c1ccc(NC(=O)N(Cc2ccc(-c3ccc(CN4CCNCC4)cc3)cc2)C2CCN(Cc3ccccc3)CC2)cc1` yielded an XC50 of 0.797 µM.
`COc1cc(C(=O)NC2CC(C)(C)N(C)C(C)(C)C2)ccc1-c1nc2cc(Cl)c(Cl)cc2[nH]1` was tested, and the XC50 was 0.788 µM.
In the case of `CN1CCN(CCCN(Cc2csc(-c3ccc(CNCc4ccccc4)cc3)n2)S(=O)(=O)c2ccc(F)cc2)CC1`, the XC50 was 0.858 µM.
Molecule `CCCCCC(=O)N1CCOC(CCN2CCC(c3ccccc3)CC2)(c2ccc(Cl)c(Cl)c2)C1` (stereo not given) has an XC50 of 1.12 µM.
`COc1ccc(NC(=O)[C@H](Cc2ccccc2)Nc2cc(C)nc(NCc3ccccc3C)n2)cc1` showed an XC50 of 0.794 µM.
`COc1ccc(CNC2CCN(C)CC2)cc1-c1ccc(S(=O)(=O)NC2CCC2)cc1` showed an XC50 of 0.882 µM.
`CN1CCN(Cc2ccc(-c3ccc4c(Nc5ccc(F)cc5Cl)ccnc4c3)o2)CC1` was tested, and the XC50 was 0.143 µM.
Work on `COc1ccccc1CCNc1nc(C)cc(N[C@@H](Cc2ccccc2)C(=O)Nc2ccccc2)n1` yielded an XC50 of 1.02 µM.
In the case of `Cc1ccc2[nH]c(-c3ccccc3)cc(=NN=Cc3cccnc3)c2c1`, the XC50 was 0.691 µM.
Molecule `Cc1cccc2nc(-c3cccc(-c4cccc(CN5CCC(CO)CC5)c4)c3)[nH]c12` has an XC50 of 0.724 µM.
Molecule `COc1ccc2nccc(N3C[C@H]4C[C@@H]3CN4CCNCc3ccc4c(n3)NC(=O)CS4)c2n1` has an XC50 of 0.973 µM.
Work on `Cc1ccc(NC(=O)N2CCCN(CCCCCNC(=O)/C=C/c3ccc(Cl)c(Cl)c3)CC2)cc1C` yielded an XC50 of 0.773 µM.
`CC(c1cccc(Nc2nccc(-c3c(-c4cccc(NC(=O)c5c(F)cccc5F)c4)nn4ncccc34)n2)c1)S(C)(=O)=O` (stereo not given) showed an XC50 of 0.0456 µM.
`NC(=O)c1cccc(C(=O)Nc2ccc(-c3cccc(-c4nc5cc(C(F)(F)F)ccc5[nH]4)c3)cc2)c1` gave an XC50 of 0.35 µM.
`COc1cc2nc(N3CCN(C(=O)c4cccc(I)c4)CC3)nc(N)c2cc1OC` showed an XC50 of 1.32 µM.
`O=S(=O)(NC1CCN(c2ccnc3cc(Cl)ccc23)C1)c1ccc(F)cc1` (stereo not given) showed an XC50 of 0.475 µM.
`CCOC(=O)c1ccc(-c2cnc(N)c(-c3nc4cccc(C)c4[nH]3)c2)cc1` was tested, and the XC50 was 0.281 µM.
For `COc1cc(Cc2cnc(N)nc2N)cc(OCCCCCC(N)=O)c1OC`, the XC50 was 1.19 µM.
Molecule `O=S(=O)(Nc1cccc(CCN2CCC(N3CCCCC3)CC2)c1)c1cccc2cccnc12` has an XC50 of 0.851 µM.
`CC(C)c1cccc(OCC2CCN(c3ccc(C(=O)Nc4ccccc4)cn3)CC2)c1` was tested, and the XC50 was 0.701 µM.
With `COc1cc(Cc2cnc(N)nc2N)cc(OCCCCNS(=O)(=O)C(F)(F)F)c1OC` the XC50 was 1.04 µM.
`COc1ccccc1CNC(=O)CCn1c(=O)[nH]c2ccsc2c1=O` was tested, and the XC50 was 1.04 µM.
Work on `O=C(Nc1cccc(C(F)(F)F)c1)NC1CCN(c2ccnc3cc(Cl)ccc23)C1` (stereo not given) yielded an XC50 of 0.12 µM.
With `CN(CCc1ccccn1)Cc1ccc(-c2ccc(-c3nc4ccccc4[nH]3)s2)cc1` the XC50 was 0.588 µM.
For `Cc1ccc(C(=O)Nc2cccc(-c3ccc(N4CCN(C)CC4)nn3)c2)cc1[N+](=O)[O-]`, the XC50 was 0.334 µM.
In the case of `CC(C)(C)C1CCC(CC2=C(C(=O)O)c3ccccc3C2=O)CC1` (stereo not given), the XC50 was 1.1 µM.
`O=C(Nc1cccc(-c2ccc(-c3nc4cc(F)ccc4[nH]3)s2)c1)c1cccnc1` showed an XC50 of 0.608 µM.
`CCCN1CCC(c2c[nH]c3ccc(NC(=O)Nc4cccc(Cl)c4Cl)cc23)CC1` showed an XC50 of 0.815 µM.
`O=C1c2ccccc2C(=O)N1c1ccc(S(=O)(=O)N2CCOCC2)cc1` was tested, and the XC50 was 1.26 µM.
